Consider 2 molecules from patent US9649303B2, “Methods and treatment for allergies and inflammation associated with gastrointestinal diseases” (MASTCELL PHARMACEUTICALS, INC., priority 2008, dated 2017).

The subject of one data set is eosinophils. The settings on record: cited from earlier work.
Data set [1] concerns patients with a history of hazelnut allergy. Description: Oral food challenge with hazelnut flour under ketotifen or placebo (Example 1). Format: in vivo, human. On the procedure:
Twenty-four patients with adverse food reaction are included in this study. As controls, twelve patients matched for age and gender and a history of GERD (Group A) and another twelve patients matched for age and gender and no history of any gastrointestinal disorder (Group B) are included. The history of use of antacids and satisfaction are recorded for both groups.
To analyze hypersensitivity to hazelnut, a double-blind, randomized, dose-ranging study is carried out with patients with a history of hazelnut allergy manifested by urticaria, angioedema, respiratory tract symptoms or hypotension generally using the methods described in Israel et al., Am. J. Respir. Crit. Care Med., (2000) 164:75-80. Eligible patients include those with serum total IgE level of 30-1000 IU/mL and/or a positive skin-prick test to hazelnut. […]
Before enrollment, threshold level for reactivity to hazelnut allergen is confirmed by a screening double-blind, placebo-controlled oral food challenge. […] Vital signs are checked, chest auscultation is performed, and peak expiratory flow rates are monitored every 30 minutes during the food challenge and for at least 2 hours after the last dose or the abatement of any symptoms or signs. […]
Peak expiratory flow rates are monitored every 30 minutes during food challenge for at least 2 hours after the last does or abatement of any symptoms or signs. […]

Data set [2] concerns adult patients who have a history of GERD. The experiment in a line: GERD patients on omeprazole, ketotifen or both: GI symptoms and allergen-specific serum IgE (Example 4). Format: in vivo, human. How it is done:
The following study may be carried out to analyze the effectiveness of mast cell stabilizer in treating gastrointestinal disorders and/or as a prophylaxis against the development of allergy in patients at risk of developing sensitivity to such allergen, e.g., sensitivity to hazelnut, when exposed to it.
Sera of nine adult patients who have a history of GERD are collected. None of the patients report adverse reactions to inhalant or food allergens; however, IgE immunoblots are performed to screen their allergic state. Three patients from Group A are administered a proton pump inhibitor, e.g, omeprazole (Group A-1). Three patients from Group A are administered an oral dose of 0.5, 1, or 2 mg of ketotifen orally twice daily (Group A-2). […]
Serum IgE and Skin Tests in Patients: Sera are tested for allergen-specific IgE against hazelnut and inhalative allergens from tree pollen (eg, birch, hazel, and alder), grass pollen, weed pollen, molds, house dust mites, insect venoms, and animal dander. […] Additionally, total IgE is determined before and at the 3-mo time point. […]
Gastrointestinal Symptoms: Symptoms of gastrointestinal side effects such as GERD, nausea, abdominal pain, vomiting, gastritis and/or dyspepsia are recorded based on the severity and frequency of the symptoms. […]

For data set [3], the system named is OVA sensitized female BALB/c mice. The experiment in a line: Sensitization to new allergen in a model of pre-existing food allergy (Example 6). Type of data set: in vivo. On the procedure:
A study is conducted to determine whether atopic animals are more easily sensitized to a newly introduced allergen (e.g., hazel nut). Four groups of female BALB/c mice (7-8 weeks old) are sensitized by intraperitoneal (IP) injections 2 weeks apart with ovalbumin (OVA; 50 μg) in 1.3% aluminum hydroxide (200 μl) followed 2 weeks later by 7 seven intragastric challenges (every other day) with saline or 5, 10, or 50 mg OVA, a selected dose of hazel nut, or combination of OVA and hazelnut. Endpoints include observance of diarrhea after intragastric challenge, Serum total and antigen specific IgE and IgG 1, gut to body weight ratio, intestinal permeability, and histological evaluation are performed. […] A second experiment assesses the ability of ketotifen to inhibit the induction of allergy to a newly introduced food allergen in animals with a pre-existing gastrointestinal allergy. […] A group of BALB/c mice similarly sensitized to OVA, but continuing to receive intragastric hazel nut in the absence of intragastric OVA fails to develop an observable gastrointestinal allergy phenotype.

Data set [4] has as its system a patient with eosinophilic esophagitis. The settings on record: elimination of diet including eggs, treatment with ketotifen and montelukast; cited from earlier work.
Data set [5] concerns patients undergoing desensitization to airborne allergen (ragweed). Description: One-day rush immunotherapy with short ragweed extract after ketotifen or placebo pretreatment (Example 2). The settings on record: ketotifen 1 mg b.i.d. plus ragweed immunotherapy vs immunotherapy alone. Type of data set: in vivo, human. On the procedure: To evaluate the effectiveness of mast cell stabilizer, e.g., ketotifen, in desensitization or immunotherapy, particularly RUSH immunotherapy, a randomized, double-blind, placebo-controlled study is performed. Patients are randomly assigned to 4 treatment groups (1:1:1:1). Pretreatment with either ketotifen, 1 mg, b.i.d., or placebo, is carried out for nine weeks to protect, prevent, inhibit or ameliorate allergic reaction, particularly to prevent, normalize or ameliorate gastrointestinal symptoms. One-day rush immunotherapy (week 0) is completed at least 3 weeks before the start of the ragweed season. On the day of rush immunotherapy, the patients receive 6 injections of either placebo or aqueous short ragweed extract. Ragweed dosing starts with a diluted extract containing 0.012 μg of Amb a 1 (a major allergen in ragweed) over a 3-hour period, reaching a maximum of 1.2 μg of Amb a 1. […]
The efficacy end point is determined by comparing the average daily allergy severity scores (measured on a scale of 0-3) between patients receiving ketotifen plus immunotherapy versus those who receive just immunotherapy alone. The score is calculated from the average of individual scores for symptoms of gastrointestinal disorders, e.g., abdominal pain, nausea, diarrhea, and/or heartburn.

Data set [6] deals with patients who have a history of GERD, unresponsive to conventional proton pump inhibitors or antacids. The experiment in a line: GERD patients unresponsive to proton pump inhibitors or antacids: ketotifen vs omeprazole (Example 5). The settings on record: ketotifen 0.5 mg, 1 mg, 2 mg twice daily or omeprazole 1×20 mg/d. Type of data set: in vivo, human. How it is done:
To evaluate the effectiveness of ketotifen in patients who have a history of GERD, but are unresponsive to conventional proton pump inhibitors or antacids, two groups of patients are tested as similar to Example 4. One group is administered ketotifen at 0.5 mg, 1 mg, 2 mg, twice daily. The second group is treated with omeprazole, 1×20 mg/d. Sera IgE are evaluated before and after administration of ketotifen or omeprazole and gastrointestinal symptoms are recorded based on severity and frequency of symptoms.

The subject of data set [7] is patients who have a diagnosis of eosinophilic esophagitis and food allergy. The experiment in a line: Eosinophilic esophagitis: ketotifen oral tablet vs topical gel (Example 7). Format: in vivo, human. How it is done: To evaluate the effectiveness of ketotifen in patients who have a diagnosis of eosinophilic esophagitis and food allergy, two groups of patients will be tested. One group is orally administered ketotifen at 0.5 mg, 1 mg, or 2 mg, twice daily as a tablet.

The subject of a further data set is PAF production. The settings on record: cited from earlier work.
Data set [8] relates to patients undergoing desensitization to oral allergen (hazelnut). The experiment in a line: Desensitization to oral allergen with hazelnut extract plus ketotifen (Example 3). Format: in vivo, human. The settings on record: ketotifen plus hazelnut extract immunotherapy vs immunotherapy alone. An excerpt: To evaluate the efficacy of ketotifen in desensitization process against oral allergen such as hazelnut, a similar study as described in Example […] may be carried out except with the use of hazelnut extract rather than ragweed extract.

For data set [9], the system named is sensitization to previously tolerated ovalbumin. The settings on record: co-administered with ovalbumin; via elevation of the gastric pH; cited from earlier work.

For the molecule `CN1CCC(=C2c3ccccc3CC(=O)c3sccc32)CC1` [ketotifen], the eosinophil chemotaxis result in the data set on eosinophils is “inhibiting chemotaxis”. Also, the “reflux symptom reporting during the study” value in data set [1] (GERD patients, Group A1 (ketotifen) vs Group A2 (placebo)) is given as “significantly lower”. Besides, in [1] (ketotifen 0.5, 1 or 2 mg orally twice daily, Group A-1 and B-1 compared to placebo groups A-2 and B-2, challenge at two, four and six weeks), the “tolerance (severity of reaction) to hazelnut upon oral ingestion” value is “significant increased tolerance”. In addition, the “hazelnut-specific (and other allergen specific) IgE in blood sera” value in data set [2] (after onset of treatment, Groups A-1, A-2, A-3) was “improved GERD symptoms and hazelnut-specific IgE”. Also, the GERD symptoms result is given as “improved GERD symptoms” in data set [2] (omeprazole 1×20 mg/d (A-1), ketotifen 0.5, 1 or 2 mg orally twice daily (A-2), both (A-3)) and “improved GERD symptoms” in data set [6]. Besides, in data set [3] (OVA sensitized mice receiving intragastric hazelnut with ketotifen or OVA plus hazelnut with ketotifen), the “development of new sensitivity to hazel nut” value was “fail to develop new sensitivity to hazel nut”. Also, the “gastrointestinal allergy phenotype upon OVA intragastric challenge” value in data set [3] (female BALB/c mice sensitized to OVA) is given as “significantly suppresses the gastrointestinal allergy phenotype”. Also, in data set [4], the clinical outcome is “clinical relief”. For the same molecule, the “adverse events of gastrointestinal disorders” value in data set [5] and in data set [8] was “fewer adverse events of gastrointestinal disorders” each time. Besides, the allergy severity scores entry in data set [5] (scale of 0-3) and in [8] was “significantly improved allergy severity scores” in each case. Further, the “allergen specific IgE in blood sera” value in data set [6] is given as “few new allergen specific IgE”. The patient-reported symptoms entry in data set [7] (ketotifen 0.5 mg, 1 mg or 2 mg twice daily as oral tablet) is “partial improvement of symptoms”. In addition, the “overall effectiveness compared between formulations” value in data set [7] (oral tablet vs topical gel vs topical corticosteroids) was “inferior to those observed with the topical gel formulation”. In [7] (oral tablet, blood analysis), the blood eosinophilia entry is “decreased eosinophilia”. The “eosinophils, mast cells and degranulation in esophageal biopsies” value in data set [7] (oral tablet, compared to pre-treatment biopsies) is “fewer numbers of eosinophils and mast cells and less degranulation”. The PAF production result in the data set with PAF production is given as “suppresses PAF production”.
As for sucralfate, the “sensitization to previously tolerated ovalbumin” value in data set [9] is on record as “caused sensitization to previously tolerated ovalbumin”.
